The source of these data is PubChem BioAssay AID180 (DTP/NCI, 2004).

Where “and” joins values, the source holds several entries; their conditions need not be identical. Identical values can stand only once.

The test system of the experiment is BDF1 mice, Adenocarcinoma 755 s.c., tumor weight T/C. Nature of the experiment: NCI In Vivo Anticancer Drug Screen. Data for tumor model Adenocarcinoma 755 (subcutaneous) in B6D2F1 (BDF1) mice. As to conditions: endpoint: mean tumor weight, higher = larger tumour. As for the experimental part:
The antitumor activity of compounds was measured in mice bearing transplantable tumors. Survival or tumor size were measured and the results are expressed as the measurement made in the treated group (T) divided by the measurement made in the vehicle treated control group (C). The tumor model used in this assay is Adenocarcinoma 755 (subcutaneous) in B6D2F1 (BDF1) mice

Setting [1] is: dose: 125.0 mg/kg/injection, schedule: Q01DX011 (ip), vehicle: carboxymethylcellulose (CMC).
Where [2] appears, read: dose: 250.0 mg/kg/injection, schedule: Q01DX011 (ip), vehicle: carboxymethylcellulose (CMC).

For the compound `CCCCN(C)N=Nc1ccc(CCCC(=O)OCC)cc1`, the T/C is 64 % of control (dose: 25.0 mg/kg/injection, schedule: Q01DX011 (ip), vehicle: saline); 57 % of control (dose: 50.0 mg/kg/injection, schedule: Q01DX011 (ip), vehicle: saline); 50 % of control (dose: 75.0 mg/kg/injection, schedule: Q01DX011 (ip), vehicle: saline).

As for `NC(Cc1cccs1)C(=O)O` (stereo unspecified), the T/C is, setting by setting: under setting [1], 71 % of control and 72 % of control; (dose: 125.0 mg/kg/injection, schedule: Q01DX011 (ip), vehicle: methylcellulose (MC)) 90 % of control; under setting [2], 91 % of control and 106 % of control; (dose: 250.0 mg/kg/injection, schedule: Q01DX011 (ip), vehicle: methylcellulose (MC)) 155 % of control; (dose: 500.0 mg/kg/injection, schedule: Q01DX011 (ip), vehicle: carboxymethylcellulose (CMC)) 65 % of control and 78 % of control; (dose: 500.0 mg/kg/injection, schedule: Q01DX011 (ip), vehicle: methylcellulose (MC)) 59 % of control. The T/C reads like this: (dose: 1000.0 mg/kg/injection, schedule: Q01DX011 (ip), vehicle: carboxymethylcellulose (CMC)) 96 % of control and 102 % of control; (dose: 1000.0 mg/kg/injection, schedule: Q01DX011 (ip), vehicle: methylcellulose (MC)) 52 % of control.

For the compound `N#[N+]c1cn(C2CC(O)C(CO)O2)c(=O)[nH]c1=O` (stereo unspecified), the T/C was 106 % of control (dose: 30.0 mg/kg/injection, schedule: Q01DX011 (ip), vehicle: saline); 118 % of control (dose: 60.0 mg/kg/injection, schedule: Q01DX011 (ip), vehicle: saline); 94 % of control (dose: 120.0 mg/kg/injection, schedule: Q01DX011 (ip), vehicle: saline); 47 % of control (dose: 240.0 mg/kg/injection, schedule: Q01DX011 (ip), vehicle: saline).

For `O=P(N1CCCCCC1)(N1CC1)N1CC1`, the T/C by setting is: (dose: 1.0 mg/kg/injection, schedule: Q01DX011 (ip), vehicle: methylcellulose (MC)) 95 % of control; (dose: 2.0 mg/kg/injection, schedule: Q01DX011 (ip), vehicle: methylcellulose (MC)) 68 % of control; (dose: 4.0 mg/kg/injection, schedule: Q01DX011 (ip), vehicle: methylcellulose (MC)) 48 % of control; (dose: 8.0 mg/kg/injection, schedule: Q01DX011 (ip), vehicle: methylcellulose (MC)) 28 % of control.

As to `CN1C=NNc2ncnc(Cl)c21`, the T/C is 166 % of control under setting [1] and 161 % of control under setting [2].

`CC1(C)O[C@@H]2C[C@H]3[C@@H]4CCC5=CC(=O)CC[C@]5(C)[C@@]4(F)[C@@H](O)C[C@]3(C)[C@]2(C(=O)CO)O1`: the T/C by setting is: (dose: 0.3 mg/kg/injection, schedule: Q01DX011 (sc), vehicle: steriod suspending solution) 60 % of control; (dose: 0.7 mg/kg/injection, schedule: Q01DX011 (sc), vehicle: steriod suspending solution) 42 % of control; (dose: 0.75 mg/kg/injection, schedule: Q01DX011 (sc), vehicle: steriod suspending solution) 82 % of control; (dose: 6.0 mg/kg/injection, schedule: Q01DX011 (sc), vehicle: steriod suspending solution) 36 % of control; (dose: 6.25 mg/kg/injection, schedule: Q01DX011 (sc), vehicle: steriod suspending solution) 41 % of control; (dose: 12.0 mg/kg/injection, schedule: Q01DX011 (sc), vehicle: steriod suspending solution) 16 % of control. Moreover, the T/C is 31 % of control (dose: 12.5 mg/kg/injection, schedule: Q01DX011 (sc), vehicle: steriod suspending solution); 8 % of control (2×) and 14 % of control (dose: 24.0 mg/kg/injection, schedule: Q01DX011 (sc), vehicle: steriod suspending solution); 20 % of control (dose: 25.0 mg/kg/injection, schedule: Q01DX011 (sc), vehicle: steriod suspending solution); 8 % of control (dose: 48.0 mg/kg/injection, schedule: Q01DX011 (sc), vehicle: steriod suspending solution).
